In patent US20230405015A1, “SUBSTITUTED 3,6-DIHYDRO-2H-1,3,4-OXADIAZIN-2-ONES FOR THE TREATMENT OF SARCOMA” (Bayer Aktiengesellschaft, priority 2021, published 2023):
Where “and” joins values, the source holds several entries; their conditions need not be identical. Equal values may be shown once. Entries after “also recorded” stand apart in the source; their conditions may differ.

Assays:
[1] = system: human sarcoma cell line G-292 clone A141B1; test: Cell proliferation measurement in vitro (Cell Titer Glo, 72 h); assay type: cell-based; settings: G292, G-292 clone A141B1, 72 h, read-out: Anti-proliferation Target IC50
Description: The antiproliferative activity of the compounds of the general formula (I) was examined in vitro in the human sarcoma cell line G-292 clone A141B1 (from ATCC). For this purpose, the appropriate number of cells (1000) were plated in 384-well plates with appropriate growth medium McCoy's 5a Medium Modified, FCS 10% final (Biochrom; #S 0415); and incubated at 37° C. overnight. After 24 h, cells on one plate (0 h plate) were treated with 30 μl/cavity of CTG solution (Promega Cell Titer Glo (catalogue #G755B and G756B)) and incubated at room temperature for 10 min, and luminescence was measured by means of a VICTOR V (Perkin Elmer), in order to determine cell viability on commencement of treatment. The cells on the test plate were treated with a set of compounds of the general formula (I) as indicated below and incubated at 37° C. for 72 h. The compounds were added to the cells by means of an HP D300 digital dispenser in a 10-step 2.5-fold dilution series generally starting at a maximum final drug concentration of 100 nM. As control, the cells were treated with vehicle (DMSO at 0.3% final concentration). After 72 h, the cells were treated with 30 μl/cavity of CTG solution (Promega Cell Titer Glo (catalogue #G755B and G756B)) and incubated at room temperature for 10 min, and luminescence was measured by means of a VICTOR V (Perkin Elmer), in order to determine cell viability at the end of treatment. The percentage effect on cell growth and the IC50 derived therefrom were determined for each test substance using the values from the 0 h plate (=maximum inhibition) and the DMSO control (=minimum inhibition). The IC50 values were calculated using a 4-parameter fit.

[2] = system: sarcoma patient derived xenograft model SA3831 (Osteosarcoma); test: In vivo xenotransplantation model SA3831; design: species or system mice
From the text: (§1) The anti-tumor activities of (6S)-5-[4′-fluoro-2-(trifluoromethyl)biphenyl-4-yl]-6-methyl-3,6-dihydro-2H-1,3,4-oxadiazin-2-one was examined in murine xenotransplantation models of human cancer. For this purpose, mice were implanted subcutaneously with tumor pieces. At a mean tumor size of 20-40 mm^2 animals were randomized into treatment and control groups (at least n=10 animals/group) and treatment started with vehicle only or respective compound (formulation: 90% PEG400/10% Ethanol; application route: per os (“p.o.”), orally). The oral application volume was 10 ml/kg. In the case of twice daily treatments, the time interval between two applications per day was 6-7 h. The tumor size and the body weight were determined at least weekly. The tumor area was detected by means of an electronic caliper [length (mm)×width (mm)]. The experiment was ended when the study reached the pre-determined ethical endpoint based on German and European animal welfare regulations. In vivo anti-tumor efficacy is presented as T/C ratio at study end (Treatment/Control; mean tumor weight of treatment group/mean tumor weight of control group) in Table 2. A compound having a T/C below 0.5 is defined as active (i.e., effective). Statistical analysis was assessed using SigmaStat software. […]

[3] = system: sarcoma patient derived xenograft model SA4058 (Synovial Sarcoma); test: In vivo xenotransplantation model SA4058; design: species or system mice
From the text: as §1

[4] = system: sarcoma patient derived xenograft model SA16044 (Soft Tissue Sarcoma); test: In vivo xenotransplantation model SA16044; design: species or system mice; settings: for T/C: SA16044 Soft Tissue Sarcoma PDX subcutaneous in mice, 10 mg/kg 2QD p.o., at study end
From the text: The anti-tumor activities of (6S)-5-[4′-fluoro-2-(trifluoromethyl)biphenyl-4-yl]-6-methyl-3,6-dihydro-2H-1,3,4-oxadiazin-2-one was examined in murine xenotransplantation models of human cancer. For this purpose, mice were implanted subcutaneously with tumor pieces. At a mean tumor size of 20-40 mm^2 animals were randomized into treatment and control groups (at least n=10 animals/group) and treatment started with vehicle only or respective compound (formulation: 90% PEG400/10% Ethanol; application route: per os (“p.o.”), orally). The oral application volume was 10 ml/kg. In the case of twice daily treatments, the time interval between two applications per day was 6-7 h. The tumor size and the body weight were determined at least weekly. The tumor area was detected by means of an electronic caliper [length (mm)×width (mm)]. The experiment was ended when the study reached the pre-determined ethical endpoint based on German and European animal welfare regulations. In vivo anti-tumor efficacy is presented as T/C ratio at study end (Treatment/Control; mean tumor weight of treatment group/mean tumor weight of control group) in Table 2. A compound having a T/C below 0.5 is defined as active (i.e., effective). Statistical analysis was assessed using SigmaStat software. A one-way analysis of variance was performed and differences to the control were compared by a pair-wise comparison procedure (Dunn's method).
Patient-derived xenograft models established by direct transplantation of fresh human tumors are considered to more closely resemble the heterogeneity of the actual human tumor compared to xenograft models established from cell lines that have been cultured in vitro for decades. The anti-tumor activity of (6S)-5-[4′-fluoro-2-(trifluoromethyl)biphenyl-4-yl]-6-methyl-3,6-dihydro-2H-1,3,4-oxadiazin-2-one was assessed in patient-derived xenograft models of sarcoma, a tumor type consisting of many subtypes and a high medical need due to absence of approved targeted therapies. The tumor models are originating from CrownBio.

[5] = system: sarcoma patient derived xenograft model SA10199 (recurrent malignant solitary fibrous tumor); test: In vivo xenotransplantation model SA10199; design: species or system mice
From the text: as §1

[6] = system: sarcoma patient derived xenograft model SA10245 (Fibrous histiocytoma); test: In vivo xenotransplantation model SA10245; design: species or system mice
From the text: as §1

O=C1NN=C(c2ccc(N3CCC(F)(F)CC3)c(F)c2)CO1 [Example 1, 5-[4-(4,4-Difluoropiperidin-1-yl)-3-fluorophenyl]-3,6-dihydro-2H-1,3,4-oxadiazin-2-one]
IC50 [1]: 26 nM

O=C1NN=C(c2ccc(-c3ccc(F)cc3)c(C(F)(F)F)c2)CO1 [Example 3, 5-[4'-Fluoro-2-(trifluoromethyl)biphenyl-4-yl]-3,6-dihydro-2H-1,3,4-oxadiazin-2-one]
IC50 [1]: 38.2 nM

O=C1NN=C(c2ccc(N3CCOCC3)c(F)c2)CO1 [Example 4, 5-[3-Fluoro-4-(morpholin-4-yl)phenyl]-3,6-dihydro-2H-1,3,4-oxadiazin-2-one]
IC50 [1]: 103 nM

Cc1cc(C2=NNC(=O)OC2)ccc1-c1ccc(F)cc1 [Example 7, 5-(4'-Fluoro-2-methylbiphenyl-4-yl)-3,6-dihydro-2H-1,3,4-oxadiazin-2-one]
IC50 [1]: 49.6 nM

Cc1cc(C2=NNC(=O)OC2)ccc1-c1ccc(F)c(F)c1 [Example 8, 5-(3',4'-Difluoro-2-methylbiphenyl-4-yl)-3,6-dihydro-2H-1,3,4-oxadiazin-2-one]
IC50 [1]: 96.8 nM

O=C1NN=C(c2ccc(-c3ccc(C(F)F)cc3)c(F)c2)CO1 [Example 92, 5-[4'-(Difluoromethyl)-2-fluoro[1,1'-biphenyl]-4-yl]-3,6-dihydro-2H-1,3,4-oxadiazin-2-one]
IC50 [1]: 35.1 nM

C[C@@H]1OC(=O)NN=C1c1ccc(-c2ccc(F)cc2)c(C(F)(F)F)c1 [Example 135, (6S)-5-[4'-Fluoro-2-(trifluoromethyl)biphenyl-4-yl]-6-methyl-3,6-dihydro-2H-1,3,4-oxadiazin-2-one]
IC50 [1]: 17.6 nM | T/C ([2]; SA3831 Osteosarcoma PDX subcutaneous in mice, 10 mg/kg 2QD p.o., at study end): 0.01 | anti-tumor efficacy (in words) ([2]; SA3831 PDX in mice, versus vehicle, unpaired t-test): strong tumor-growth inhibition; also recorded: significant anti-tumor efficacy | anti-tumor efficacy (in words) ([3]; SA4058 PDX in mice, versus vehicle, unpaired t-test): significant anti-tumor efficacy; also recorded: strong tumor-growth inhibition | T/C ([3]; SA4058 Synovial Sarcoma PDX subcutaneous in mice, 10 mg/kg 2QD p.o., at study end): 0.12 | anti-tumor efficacy (in words) ([4]; SA16044 PDX in mice, versus vehicle, unpaired t-test): significant anti-tumor efficacy; also recorded: moderate tumor-growth inhibition | T/C ([4]; listed as (6S)-5-[4'-fluoro-2-(trifluoromethyl)biphenyl-4-yl]-6-methyl-3,6-dihydro-2H-1,3, 10 mg/kg): 0.33 | T/C ([4]; listed as (6S)-5-[4′-fluoro-2-(trifluoromethyl)biphenyl-4-yl]-6-methyl-3,6-dihydro-2H-1,3, 10 mg/kg): 0.35 and 0.33 | anti-tumor efficacy (in words) ([5]; SA10199 PDX in mice, versus vehicle, unpaired t-test): significant anti-tumor efficacy; also recorded: moderate tumor-growth inhibition | T/C ([5]; SA10199 Sarcoma (recurrent malignant solitary fibrous tumor) PDX subcutaneous in mice, 10 mg/kg 2QD p.o., at study end, listed as (6S)-5-[4'-fluoro-2-(trifluoromethyl)biphenyl-4-yl]-6-methyl-3,6-dihydro-2H-1,3, 10 mg/kg): 0.34 | T/C ([6]; SA10245 Fibrous histiocytoma PDX subcutaneous in mice, 10 mg/kg 2QD p.o., at study end): 0.73 | anti-tumor efficacy (in words) ([6]; SA10245 PDX in mice, versus vehicle, unpaired t-test): non-significant signs of anti-tumor efficacy; also recorded: least sensitive model

Cc1ccc(C2=NNC(=O)OC2)cc1C(F)(F)F [Example 139, 5-[4-Methyl-3-(trifluoromethyl)phenyl]-3,6-dihydro-2H-1,3,4-oxadiazin-2-one]
IC50 [1]: 193 nM

O=C1NN=C(c2ccc(-c3cnn(C(F)F)c3)c(C(F)(F)F)c2)CO1 [Example 146, 5-{4-[1-(Difluoromethyl)-1H-pyrazol-4-yl]-3-(trifluoromethyl)phenyl}-3,6-dihydro-2H-1,3,4-oxadiazin-2-one]
IC50 [1]: 12.5 nM

C[C@@H]1OC(=O)NN=C1c1ccc(-n2ccc(C(F)(F)F)n2)c(C(F)(F)F)c1 [Example 265, (6S)-6-Methyl-5-{3-(trifluoromethyl)-4-[3-(trifluoromethyl)-1H-pyrazol-1-yl]phenyl}-3,6-dihydro-2H-1,3,4-oxadiazin-2-one]
IC50 [1]: 37.2 nM

COCCCc1ccc(C2=NNC(=O)OC2)cc1C(F)(F)F [Example 267, 5-[4-(3-Methoxypropyl)-3-(trifluoromethyl)phenyl]-3,6-dihydro-2H-1,3,4-oxadiazin-2-one]
IC50 [1]: 16.8 nM

CC(C)(C)CCc1ccc(C2=NNC(=O)OC2)cc1C(F)(F)F [Example 269, 5-[4-(3,3-Dimethylbutyl)-3-(trifluoromethyl)phenyl]-3,6-dihydro-2H-1,3,4-oxadiazin-2-one]
IC50 [1]: 85.7 nM

C[C@@H]1OC(=O)NN=C1c1ccc(N2CCN(C)CC2)c(C(F)(F)F)c1 [Example 277, (6S)-6-Methyl-5-[4-(4-methylpiperazin-1-yl)-3-(trifluoromethyl)phenyl]-3,6-dihydro-2H-1,3,4-oxadiazin-2-one]
IC50 [1]: 604 nM
